Measured values as given in the SangsterLogP compilation.

Nc1nc(Cl)nc2c1nc(Br)n2C1CC(O)C(CO)O1 (stereo not given) showed a logP of 0.9. CNc1nc(Cl)nc2c1ncn2[C@H]1C[C@H](O)[C@@H](CO)O1 gave a logP of 0.91. Nc1nc(Cl)nc2c1ccn2[C@H]1C[C@H](O)[C@@H](CO)O1 gave a logP of 0.38. OC[C@H]1O[C@@H](n2cnc3ccccc32)C[C@@H]1O gave a logP of 0.69. Work on Nc1ncnc2c1ncn2[C@H]1C[C@H](O)[C@@H](CO)O1 yielded a logP of -0.68. With Nc1nc(Cl)nc2nc[nH]c12 the logP was 0.35. For OCC1OC(n2cnc3c(NC4CCCCC4)nc(Cl)nc32)CC1O (stereo not given), the logP was 3. With OC[C@H]1O[C@@H](n2nc3ccccc3n2)C[C@@H]1O the logP was 1.06. Nc1ncnc2ncn([C@H]3C[C@H](O)[C@@H](CO)O3)c12 gave a logP of -0.01. For OC[C@H]1O[C@@H](n2nnc3ccccc32)C[C@@H]1O, the logP was 0.55. Nc1nc(Cl)nc2c1cnn2[C@H]1C[C@H](O)[C@@H](CO)O1 showed a logP of 0.38. OCCNc1nc(Cl)nc2c1ncn2[C@H]1C[C@@H](O)[C@@H](CO)O1 showed a logP of 0.47. With OCC1OC(n2cnc3c(NCc4ccccc4)nc(Cl)nc32)CC1O (stereo not given) the logP was 2.48. For Nc1nc(Br)nc2c1ncn2C1CC(O)C(CO)O1 (stereo not given), the logP was 0.41. With CCn1cnc2c(N)nc(Cl)nc21 the logP was 1.16.
